Reference: patent US10588892B2, “Pharmaceutical composition comprising sacubitril and valsartan” (priority 2017, dated 2020)

Assay: Stability of polymorphic forms towards relative humidity
Assay type: physicochemical
Conditions: for stability at low relative humidity: relative humidity below 40%, temperatures between 15 and 30° C.
Method: Changes in humidity have less impact on the valsartan disodium form 2 as compared to the prior art form 1. […] By using valsartan disodium form 2 and by preparing the composition in an environment with relative humidity below 40%, at temperatures between 15 and 30° C., formation of the co-crystal is completely avoided. Any polymorphic form of sacubitril sodium can be used in accordance with the present invention. Preferably, the polymorphic form of sacubitril sodium is, like valsartan disodium form 2, very stable at relative humidity below […], at temperatures between 15 and 30° C. Particularly preferred polymorphic forms of sacubitril sodium to be used in a composition comprising a physical mixture with valsartan disodium form 2 are sacubitril sodium form 1 and form 2. Sacubitril sodium form 1 has an X-ray powder diffraction pattern comprising characteristic peaks at the following 2 theta (±0.2) angles: 3.14°, 6.25°, 11.97°, 12.73°, 13.78°, 16.50°, 18.35°, 19.93°, 21.56°, 23.75°, 26.20°, measured using a Cu Kα radiation. Sacubitril sodium form 2 has an X-ray powder diffraction pattern comprising characteristic peaks at the following 2 theta (±0.2) angles: 5.26°, 10.52°, 10.92°, 14.78°, 16.96°, 17.17°, 17.51°, 19.92°, 20.40°, 20.81°, 22.23°, measured using a Cu Kα radiation. […] The most preferred polymorphic form of sacubitril sodium to be used with valsartan disodium form 2 in a composition in accordance with the present invention is form 1.

Compound	impact of changes in humidity compared with prior art form 1	stability compared with prior art form 1 (example 11 of WO2002006253)	stability at low relative humidity
CCCCC(=O)N(Cc1ccc(-c2ccccc2-c2nnn[nH]2)cc1)[C@H](C(=O)O)C(C)C [valsartan disodium form 2, valsartan disodium]	less impact	more stable	particularly stable
CCOC(=O)[C@H](C)C[C@@H](Cc1ccc(-c2ccccc2)cc1)NC(=O)CCC(=O)O [Sacubitril sodium form 1, sacubitril sodium]			stable compounds
